Measured values published in patent publication US20050014160A1, “Assays for protease enzyme activity” (priority 2003, published 2005).
Square brackets hold non-standard residues; d marks the D form. Ends that are not written are not given here. Sta = CC(C)C[C@H](N)[C@@H](O)CC(=O)O

Key:
[1] = target: T1, β-secretase (Homo sapiens, UniProt P56817); assay: QTL/QTP assay for β-secretase activity with quencher-tether-biotin peptide substrates; format: biochemical
Description: In a 384-well plate, […] of β-secretase peptide substrate solution of appropriate concentration was mixed with a given amount of β-secretase enzyme in a total volume of […] in assay buffer. In the same plate, a control experiment was also set up where the same amount of peptide was taken in assay buffer but no enzyme was added. The experiments were usually done in triplicate sets for both sample and control. After a given time period of incubation at CRT, the fluorescent polymer in polymer buffer was added to the sample and control wells. The well plate was shaken inside the plate reader and the fluorescence intensity of the samples was measured. The difference in relative fluorescence units between sample and control wells is a measure of enzyme activity.
In the above example, the polymer can include any of the following: • A. Biotin binding protein (BBP) functionalized polystyrene latex carboxylic acid microspheres that are coated with conjugated polymer 1; • B. Solution complex of BBP and biotinylated polymer 2; • C. Microspheres as in A that are doped with a small amount of Phycoerythrin or related fluorescent protein conjugated to biotin; • D. Solution Sensor as in B doped with a small amount of Phycoerythrin or related fluorescent protein conjugated to biotin; and • E. Covalent conjugate of Phycoetythrin or another fluorescent protein and BBP. […]
The assay performance was further improved when the polymer microsphere sample A was doped with a small amount of Biotin-R-Phycoerythrin (Biotin-R-PE) conjugate. In one experiment, BSEC-1, BSEC-3 (a,b) (same peptide substrate synthesized by different vendors) and BSEC-4 were all exposed to β-secretase enzyme under identical conditions to compare their efficiencies in the assay. Polymer sample C was prepared fresh just before the start of experiment by mixing together Polymer A and Biotin-R-PE in a ratio designed to provide 5×10^6 microspheres doped with 100 fmol of Biotin-R-PE per well in a volume of 10 μL.
To 5 μL of a 300 nM solution of each peptide substrate in assay buffer in separate wells was added 10 ng of β-secretase enzyme in 5 μL of assay buffer to start the reactions. Each reaction was performed in triplicate. Controls were performed for each peptide without enzyme in quadruplicate. The samples were incubated at CRT for 60 minutes. At the end of the incubation period, the Biotin-R-PE doped polymer C was added to each well. The plate was shaken in the plate reader for 60 seconds, then probed for emission at 576 nm by exciting at 440 nm and using 475 nm cut-off filter. BSEC-1 gave RFU values of 6270±196 for control and 9645±152 for sample. BSEC-3a gave RFUs of 7656±20 for control and 15022±743 for sample while BSEC-3b gave RFUs of 6054±41 and 12265±913 for control and sample respectively. In comparison, BSEC-4 gave values of 9207±364 and 9732±319 for control and sample respectively.
The polymer solution sensor B was prepared by mixing together 56.5 nmol of Avidin (Biotin binding protein, BBP) and 848 nmol of biotinylated PPE polymer 2 in a total volume of 11.3 μL and incubating at CRT for 24 hours. The polymer and the BBP combine with each other through the biotin-avidin interaction to form stable entities. The solution sensor thus prepared was diluted appropriately with polymer buffer at the beginning of each experiment.
To 5 μL of a 400 nM solution of BSEC-1 in assay buffer in a 384 well plate was added 30 ng of β-secretase dissolved in 5 μL of assay buffer. The mixture was made in triplicate and incubated for 30 minutes at CRT. The control wells contained only peptide and no enzyme. After incubation, a 100-fold dilution of the above solution sensor was added at 20 μL to each well. The plate was shaken inside the microplate reader and the wells were probed by exciting the polymer at 440 nm and measuring emission intensity at 530 run. The control wells gave an average RFU value of 5400±200 and the sample wells containing enzyme gave RFU of 8350±200. […]

[2] = target: T1, β-secretase; assay: QTL assay for inhibition of β-secretase activity by a known inhibitor; format: biochemical; settings: for delta-over-control RFU: BSEC-1 substrate, 30 ng β-secretase, 15 minutes, Polymer A, without inhibitor 4468±85
From the text: In another embodiment, the QTL assay is capable of detecting the inhibition of β-secretase activity in unknown samples. Whereas, in the absence of any inhibitory substance in the reaction mixture, the enzyme would cleave a large portion of the reactive tether present, in the presence of an effective inhibitor, the enzyme loses most of its activity. The QTL assay provides evidence of partial or total inhibition of enzyme activity through a lowering or complete lack of “fluorescence recovery” in such samples.
The structure of the statine-derived peptide inhibitor of β-secretase is given below:
STA-200 is a well-known inhibitor of β-secretase activity. To 2.5 μL of an 800 nM solution of BSEC-1 in assay buffer was added 30 ng of β-secretase and the volume made up to a total of 10 μL with assay buffer. In another well, 2.5 μL of 800 nM BSEC-1 solution was incubated with a pre-mixed solution of 2.5 μL of STA-200 solution and 30 ng of β-secretase so that the final volume is again 10 μL. Two control reactions were also set up in separate wells where one had only peptide in assay buffer while the other had peptide and inhibitor incubating in assay buffer. All samples were incubated at CRT for 15 minutes followed by the addition to each of 19.2 μL of Polymer A suspension (1×10^7 microspheres) in polymer buffer. The mixtures were then probed for emission at 530 nm by exciting them at 440 nm and using 475 nm cut-off filter. The mixture of peptide and enzyme alone gave a delta-over-control RFU of 4468±85. In comparison, a mixture of peptide, enzyme and 60 nM STA-200 (600 fmol) gave a delta-over-control RFU of 2746±241 while a mixture containing 250 nM STA-200 (2.5 pmol) gave a corresponding value of only 865±178.

[3] = target: Streptavidin-B-Phycoerythrin conjugate (SAv-BPE) (Streptomyces avidinii, UniProt P22629); assay: Superquenching of fluorescent conjugate by β-secretase peptide substrate (Stern-Volmer); settings: 2.5 nM solution of the fluorescent conjugate SAv-BPE
Sequence of Streptavidin-B-Phycoerythrin conjugate (SAv-BPE) (P22629 25-183): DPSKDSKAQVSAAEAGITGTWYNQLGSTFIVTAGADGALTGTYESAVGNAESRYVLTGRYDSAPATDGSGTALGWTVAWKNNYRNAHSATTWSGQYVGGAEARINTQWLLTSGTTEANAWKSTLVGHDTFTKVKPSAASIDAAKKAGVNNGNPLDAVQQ
Sequence of Streptavidin-B-Phycoerythrin conjugate (SAv-BPE) (P11392 whole entry partner): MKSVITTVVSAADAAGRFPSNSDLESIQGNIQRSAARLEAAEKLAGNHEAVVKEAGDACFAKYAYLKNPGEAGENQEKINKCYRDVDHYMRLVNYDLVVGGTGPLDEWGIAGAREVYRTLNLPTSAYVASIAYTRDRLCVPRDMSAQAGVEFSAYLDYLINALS
Sequence of Streptavidin-B-Phycoerythrin conjugate (SAv-BPE) (P11393 whole entry partner): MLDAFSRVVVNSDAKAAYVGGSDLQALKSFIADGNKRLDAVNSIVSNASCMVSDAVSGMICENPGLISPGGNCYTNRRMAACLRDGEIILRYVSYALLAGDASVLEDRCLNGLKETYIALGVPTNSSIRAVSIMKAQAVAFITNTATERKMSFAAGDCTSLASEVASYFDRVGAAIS
From the text: In another embodiment of the invention, the fluorescent polymer is a biological ensemble comprising phycoerythrin or phycobilisome.

[4] = target: Caspase-3 enzyme (Homo sapiens, UniProt P42574); settings: Example 10, peptide substrate with Caspase-3 at CRT; control without enzyme remains unchanged
Sequence of Caspase-3 enzyme (P42574 29-175 limits assumed, species assumed): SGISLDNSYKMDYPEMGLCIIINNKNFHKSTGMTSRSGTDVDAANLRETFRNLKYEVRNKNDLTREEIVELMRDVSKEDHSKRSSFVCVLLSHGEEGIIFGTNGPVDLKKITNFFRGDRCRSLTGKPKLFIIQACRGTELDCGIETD
Sequence of Caspase-3 enzyme (P42574 176-277 limits assumed, species assumed): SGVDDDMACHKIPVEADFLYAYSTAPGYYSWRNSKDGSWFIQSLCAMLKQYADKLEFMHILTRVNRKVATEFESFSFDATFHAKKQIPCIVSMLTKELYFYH
Description: To a known amount of the peptide substrate represented by SEQ ID NO:8 in assay buffer is added a sample solution of Caspase-3 enzyme in one well of a 384-well plate. In another well, the peptide substrate is taken without enzyme. The plate is incubated at CRT and the sample and control wells measured for fluorescence intensity at various time periods. […] An assay of this type is represented in FIG. 3.

[5] = Example 3: 300 nM substrate, 10 ng β-secretase, 60 minutes at CRT, Biotin-R-PE doped polymer C, ex 440 nm/em 576 nm
[6] = Example 3: 300 nM substrate, no enzyme, 60 minutes at CRT, Biotin-R-PE doped polymer C, ex 440 nm/em 576 nm
[7] = Example 7: 300 nM substrate, 20 ng β-secretase, 30 minutes, SAv-BPE (Polymer E), ex 490 nm/em 576 nm
[8] = Example 7: 300 nM substrate, no enzyme, 30 minutes, SAv-BPE (Polymer E), ex 490 nm/em 576 nm

T1 sequence (P56817 46-501): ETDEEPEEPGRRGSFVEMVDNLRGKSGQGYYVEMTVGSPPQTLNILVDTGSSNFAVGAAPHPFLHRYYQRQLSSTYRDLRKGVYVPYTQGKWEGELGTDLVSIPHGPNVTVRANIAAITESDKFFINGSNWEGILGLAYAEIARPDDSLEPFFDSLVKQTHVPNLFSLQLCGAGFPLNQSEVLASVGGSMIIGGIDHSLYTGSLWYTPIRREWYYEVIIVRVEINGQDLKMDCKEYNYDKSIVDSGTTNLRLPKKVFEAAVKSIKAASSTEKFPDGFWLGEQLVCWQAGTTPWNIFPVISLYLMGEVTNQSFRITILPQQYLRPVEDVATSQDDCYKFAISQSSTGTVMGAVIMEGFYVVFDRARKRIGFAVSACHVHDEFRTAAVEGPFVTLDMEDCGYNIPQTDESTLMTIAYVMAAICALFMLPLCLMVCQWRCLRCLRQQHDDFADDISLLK

Substance: (AZO)-TKKISEVNLDAEFRK-(Nε-Biotin) [BSEC-4]
- RFU of sample [1, 5]: 9732±319 RFU
- RFU of control [1, 6]: 9207±364 RFU

Substance: KTEISEVN-(Sta)-VAEF-OH (KTEISEVN[Sta]VAEF-OH; N-terminus assumed; SMILES CC[C@H](C)[C@H](NC(=O)[C@H](CCC(=O)O)NC(=O)[C@@H](NC(=O)[C@@H](N)CCCCN)[C@@H](C)O)C(=O)N[C@@H](CO)C(=O)N[C@@H](CCC(=O)O)C(=O)N[C@H](C(=O)N[C@@H](CC(N)=O)C(=O)N[C@@H](CC(C)C)[C@@H](O)CC(=O)N[C@H](C(=O)N[C@@H](C)C(=O)N[C@@H](CCC(=O)O)C(=O)N[C@@H](Cc1ccccc1)C(=O)O)C(C)C)C(C)C) [STA-200]
- delta-over-control RFU ([2]; 60 nM STA-200 (600 fmol)): 2746±241 RFU
- delta-over-control RFU ([2]; 250 nM STA-200 (2.5 pmol)): 865±178 RFU
- IC50 value ([2]; sample incubated for fifteen minutes): in the range of nanomolar concentrations

Substance: (QSY-7)-TEEISEVNLDAEFK-(Nε-Biotin) [BSEC-1]
- relative fluorescence units (RFU) of sample ([1]; Example 1: 400 nM substrate, 20 ng β-secretase, 30 min at CRT, polymer A, ex 420 nm/em 530 nm): 9045±109 RFU
- relative fluorescence units (RFU) of control ([1]; Example 1: 400 nM substrate, no enzyme, 30 min at CRT, polymer A, ex 420 nm/em 530 nm): 5529±286 RFU
- RFU of sample [1, 5]: 9645±152 RFU
- RFU of control [1, 6]: 6270±196 RFU
- RFU of sample wells containing enzyme ([1]; Example 5: 400 nM substrate, 30 ng β-secretase, 30 minutes at CRT, solution sensor polymer B, ex 440 nm/em 530 nm): 8350±200 RFU
- average RFU of control wells ([1]; Example 5: 400 nM substrate, no enzyme, 30 minutes at CRT, solution sensor polymer B, ex 440 nm/em 530 nm): 5400±200 RFU
- average RFU of enzyme wells [1, 7]: 11828±556 RFU
- average RFU of control wells [1, 8]: 7671±286 RFU
- delta-over-control RFU, peptide and enzyme alone ([1]; Example 8: 2.5 μL of 800 nM substrate, 30 ng β-secretase, no inhibitor, 15 minutes at CRT, Polymer A, ex 440 nm/em 530 nm): 4468±85 RFU
- Stem-Volmer quenching constant [3]: ~1e+08 M⁻¹

Substance: (AZO)-TEEISEVNLDAEFK-(Nε-Biotin) [BSEC-3]
- RFU of sample ([1]; Example 2: 400 nM substrate, 60 ng β-secretase, ten minutes at CRT, polymer A, ex 440 nm/em 530 nm): 10996±424 RFU
- RFU of control ([1]; Example 2: 400 nM substrate, no enzyme, ten minutes at CRT, polymer A, ex 440 nm/em 530 nm): 8111±707 RFU
- RFU of sample ([1]; Example 3: 300 nM substrate, 10 ng β-secretase, 60 minutes at CRT, Biotin-R-PE doped polymer C, ex 440 nm/em 576 nm, listed as BSEC-3a): 15022±743 RFU
- RFU of sample ([1]; Example 3: 300 nM substrate, 10 ng β-secretase, 60 minutes at CRT, Biotin-R-PE doped polymer C, ex 440 nm/em 576 nm, listed as BSEC-3b): 12265±913 RFU
- RFU of control ([1]; Example 3: 300 nM substrate, no enzyme, 60 minutes at CRT, Biotin-R-PE doped polymer C, ex 440 nm/em 576 nm, listed as BSEC-3a): 7656±20 RFU
- RFU of control ([1]; Example 3: 300 nM substrate, no enzyme, 60 minutes at CRT, Biotin-R-PE doped polymer C, ex 440 nm/em 576 nm, listed as BSEC-3b): 6054±41 RFU
- average RFU of sample wells ([1]; Example 6: 300 nM substrate, 30 ng β-secretase, 30 minutes at CRT, doped solution sensor D, ex 440 nm/em 576 nm): 14500±200 RFU
- average RFU of control wells ([1]; Example 6: 300 nM substrate, no enzyme, 30 minutes at CRT, doped solution sensor D, ex 440 nm/em 576 nm): 5200±100 RFU
- average RFU of enzyme wells [1, 7]: 18032±228 RFU
- average RFU of control wells [1, 8]: 11639±335 RFU

Substance: D-E-V-D-Cyanine [SEQ ID NO:8]
- fluorescence intensity of sample with increasing time [4]: increase in fluorescence
